In assay [1] the target is T1, CP2 (corn cysteine protease 2) (Zea mays, UniProt Q43705).
T1 construct: gene see1
T1 sequence (Q43705 143-360 limits assumed): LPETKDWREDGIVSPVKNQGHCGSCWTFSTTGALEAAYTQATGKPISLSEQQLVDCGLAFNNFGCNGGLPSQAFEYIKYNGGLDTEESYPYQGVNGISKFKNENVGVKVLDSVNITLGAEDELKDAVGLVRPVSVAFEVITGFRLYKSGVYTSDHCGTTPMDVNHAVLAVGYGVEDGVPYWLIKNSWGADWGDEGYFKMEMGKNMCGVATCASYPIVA
As to the kind of experiment: fluorimetric protease assay with Z-Phe-Arg-AMC. Particulars: 10 min preincubation; 1 µM Z-Phe-Arg-AMC; pH 6.0; covalent. In kind it is biochemical.

Another assay concerns the target T2, CP2 (Zea mays, UniProt Q43705).
T2 construct: gene see1; transiently expressed in Nicotiana benthamiana (pGreenII 0029); apoplastic fluid, not purified
T2 sequence (Q43705 143-360): T1 sequence (Q43705 143-360 limits assumed)
Kind of assay: fluorimetric protease assay (AMC release), apoplastic fluid. In kind it is biochemical. Particulars: 2 µM substrate; pH 6.0, room temperature; DTT.

A further assay addresses T3, CP1A (Zea mays, UniProt B6T669).
T3 construct: transiently expressed in Nicotiana benthamiana (pGreenII 0029); apoplastic fluid, not purified
The assay is described as above. In kind it is biochemical. The following applies: 2 µM substrate; pH 6.0, room temperature; DTT.

For the next assay, the target named is T4, XCP2 (Zea mays, UniProt B6TIC7).
T4 construct: transiently expressed in Nicotiana benthamiana (pGreenII 0029); apoplastic fluid, not purified
T4 sequence (B6TIC7 158-377): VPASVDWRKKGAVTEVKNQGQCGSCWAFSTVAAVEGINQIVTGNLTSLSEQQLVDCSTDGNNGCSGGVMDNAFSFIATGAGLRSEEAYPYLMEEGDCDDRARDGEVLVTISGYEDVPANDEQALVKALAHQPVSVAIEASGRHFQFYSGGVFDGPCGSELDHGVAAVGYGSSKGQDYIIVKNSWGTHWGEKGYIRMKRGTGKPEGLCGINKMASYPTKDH
The description is as above. It is filed as biochemical. The following applies: 2 µM substrate; pH 6.0, room temperature; DTT.

A further assay concerns the target T5, CathepsinBIII (CatB) (Zea mays, UniProt B6TLR9).
T5 construct: transiently expressed in Nicotiana benthamiana (pGreenII 0029); apoplastic fluid, not purified
T5 sequence (B6TLR9 93-347): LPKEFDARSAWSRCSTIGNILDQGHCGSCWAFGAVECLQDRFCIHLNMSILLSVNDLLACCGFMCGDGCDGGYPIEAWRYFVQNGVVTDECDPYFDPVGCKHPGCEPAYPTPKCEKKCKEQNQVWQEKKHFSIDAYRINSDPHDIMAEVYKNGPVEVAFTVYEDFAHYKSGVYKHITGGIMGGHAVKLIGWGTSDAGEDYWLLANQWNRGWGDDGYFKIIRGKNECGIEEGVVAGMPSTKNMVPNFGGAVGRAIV
The description is as above. In kind it is biochemical. The following applies: 2 µM substrate; pH 6.0, room temperature; DTT.

The target of assay [2] is T1, CP2 (corn cysteine protease 2). As to the kind of experiment: fluorimetric protease assay (AMC release, […] nm). In kind it is biochemical. The following applies: 1 µM substrate; pH 6.0.
Assay [3] addresses CP2 (corn cysteine protease 2) without signal peptide and prodomain, Gal4 activation domain fusion (pGADT7-CP2) (maize) (UniProt Q10717).

Where a SMILES comes first, the peptide text is derived from it. The star is where a group is joined. AMC = Cc1cc(=O)oc2cc(N*)ccc12; Cbz = O=C(OCc1ccccc1)*

T3 sequence (B6T669 130-463): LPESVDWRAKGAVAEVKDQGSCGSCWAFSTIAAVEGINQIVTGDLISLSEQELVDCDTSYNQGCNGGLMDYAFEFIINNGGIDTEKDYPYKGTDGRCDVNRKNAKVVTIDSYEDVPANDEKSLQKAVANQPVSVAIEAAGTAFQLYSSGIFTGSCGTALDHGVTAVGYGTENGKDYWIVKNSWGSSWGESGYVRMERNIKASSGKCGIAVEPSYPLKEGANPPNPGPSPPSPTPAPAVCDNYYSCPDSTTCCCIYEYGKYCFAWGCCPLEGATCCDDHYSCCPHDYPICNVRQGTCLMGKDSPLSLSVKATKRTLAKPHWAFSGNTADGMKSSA

Turning to `CC(C)C[C@H](NC(=O)[C@H]1O[C@@H]1C(=O)O)C(=O)NCCCCN=C(N)N` [E-64], the “inhibition at 2.5 μM” value in assay [1] was “inhibited by addition of the specific small molecule cysteine protease inhibitor E-64”.
Turning to `Cc1cc(=O)oc2cc(NC(=O)[C@H](CCCNC(=N)N)NC(=O)[C@H](Cc3ccccc3)NC(=O)OCc3ccccc3)ccc12` [Z-Phe-Arg-7-amido-4-methylcoumarin] (Cbz-Phe-Arg-{AMC}), the “fluorimetric protease assay (AMC release), apoplastic fluid” value on CP2, at CP1A, at XCP2 and at CathepsinBIII (CatB) was “Protease activity was determined using substrate Z-Phe-Arg-AMC” in each case. In assay [2], the “fluorimetric protease assay (AMC release, 460 nm)” value is on record as “Protease-activity was determined using the fluorescent substrate Z-Phe-Arg-AMC”.
Take “GST-Pit2 (Pit2 without signal peptide with N-terminal GST-tag, pRSET-GST-PP-Pit2) (natural protein)”: the inhibition of the activity on Z-Phe-Arg-AMC of recombinant His-tagged CP2 (E. coli, refolded, activated by pH shift and pepsin) by 10 µM recombinant Pit2 (GST tag removed) in assay [3] came out at 85 % inhibition.
